The values below come from patent US20020028807A1, “Non-nucleoside reverse transcriptase inhibitors” (priority 2000, published 2002).

The test system of test [1] is HIV coding for mutant reverse transcriptase Y188L. In words: ELISA (p24) assay of HIV replication in C8166 cell culture, Y188L virus. To be noted: Human immunodeficiency virus 1, C8166, 72 h, read-out: EC50 Y188L. Format: cell-based, HIV-1. The protocol:
Compounds of the invention were tested for their ability to inhibit HIV replication in cell culture in a 96-well plate assay. Complete RPMI 1640, consisting of RPMI 1640+10% fetal bovine serum, 10 μg/ml gentamycin and 10 μM β-mercaptoethanol was used for dilution of the compound as well as cell growth medium. The T lymphocyte cell line C8166 was infected at a multiplicity of infection of 0.001 with viruses coding for wild-type and mutant reverse transcriptase. Cells were then incubated for three days in the presence of serial dilutions of the compounds of the invention. The supernatant was pooled from eight replica wells and the concentration of extracellular p24 was determined using a commercially available HIV-1 p24 antigen assay kit (Beckman-Coulter®). The level of inhibition (% inhibition) was calculated with the following equation: [formula]
On the technique in general: An ELISA detects its analyte on a solid surface through an enzyme-linked reagent.

The target of a further test is T1, HIV-1 RT P23L (Human immunodeficiency virus type 1 group M subtype B, UniProt P03366, P835L).
T1 construct: an HIV RT clone pKRT2 containing only the RT p66 gene regulated by the lac operon/trc promoter; made in house; host or cells: E. coli JM109, vector pKK233-2
In words: Reverse transcriptase (RT) assay, P23L mutant. The test is classed as biochemical. The text has this:
(§1) Among the enzymes for which Human Immunodeficiency Virus (HIV-1) encodes is a reverse transcriptase (1), so-named because it transcribes a DNA copy from an RNA template. This activity can be quantitatively measured in a cell-free enzyme assay and is based upon the observation that reverse transcriptase is able to use a synthetic template poly r(C) primed with a biotinylated oligo d(G) to transcribe a radio-labelled DNA strand utilising 3H-dGTP as a substrate. The assay described below utilises the wild-type enzyme (which is the predominant form of the enzyme observed in patients infected with HIV-1) and can also be used with mutant RT enzymes (for example, Y181C, prepared by site-directed mutagenesis in which the tyrosine residue at codon 181 has been replaced by a cysteine residue) in analogous assay conditions. This assay allows compounds to be evaluated for their effectiveness at inhibiting the mutant enzymes.
(§2) Some HIV-1 IIIB clone BH10 RT mutants were provided by Dr. C.-K. Shih (Boehringer Ingelheim Pharmaceutials Inc., U.S.A.) in the vector pKK233-2 (Pharmacia). Briefly an HIV RT clone pKRT2 containing only the RT p66 gene regulated by the lac operon/trc promoter was obtained from Dr. W. Summers (Yale University) (2). A variety of specific amino acid substitutions were introduced into the wild-type RT gene by site-directed mutagenesis. RT clones were subcloned into the pKK233-2 bacterial expression vector. Clones provided included wild-type, Val106Ala, Tyr181Cys, Tyr188Cys, Tyr188Leu, Gly190Ala and Pro236Leu. Others were made in-house by site-directed mutagenesis of the pKK233-2 RT clones including Lys103Asn, Lys103Asn/Tyr181Cys, Lys103Asn/Leu100Ile, Lys103Asn/Pro225His, and Lys103Asn/Val108Ile.
Purification of recombinant reverse transcriptase was performed using a combination of methods previously described (3). A single colony from a fresh plate of transformed JM109 cells was used to initiate growth of a pre-culture grown o/n at 37° C. Two liters of growth medium were inoculated with this pre-culture. At OD600˜1.5 (5-6 h at 37° C.), RT gene expression was induced with IPTG (1 mM final), and the fermentation was continued for a few more hours at 37° C. After centrifugation, supernatants were discarded while cell pellets were pooled and stored at −80° C. until purification. Cells were thawed at 4° C. overnight and suspended in lysis buffer (MES 50 mM pH 6, EDTA 1 mM, 10% v/v glyerol, 0.02% w/v OBG, 0.02% w/v sodium azide). Lysozyme was added and the mixture was incubated on ice for 40 minutes. After homogenization using a bounce in presence of lysozyme and sonication, the cells were centrifuged for 30 minutes. Supernatant (S1) was saved and stored at 4° C. […]

The next test addresses T2, HIV-1 RT Y188C (Human immunodeficiency virus type 1 group M subtype B, UniProt P03366, Y787C).
T2 construct: an HIV RT clone pKRT2 containing only the RT p66 gene regulated by the lac operon/trc promoter; made in house; host or cells: E. coli JM109, vector pKK233-2
In words: Reverse transcriptase (RT) assay, Y188C mutant. The test is classed as biochemical.
Source text: as §1, §2
Purification of recombinant reverse transcriptase was performed using a combination of methods previously described (3). A single colony from a fresh plate of transformed JM109 cells was used to initiate growth of a pre-culture grown o/n at 37° C. Two liters of growth medium were inoculated with this pre-culture. At OD600˜1.5 (5-6 h at 37° C.), RT gene expression was induced with IPTG (1 mM final), and the fermentation was continued for a few more hours at 37° C. After centrifugation, supernatants were discarded while cell pellets were pooled and stored at −80° C. until purification. Cells were thawed at 4° C. overnight and suspended in lysis buffer (MES 50 mM pH 6, EDTA 1 mM, 10% v/v glyerol, 0.02% w/v OBG, 0.02% w/v sodium azide). Lysozyme was added and the mixture was incubated on ice for 40 minutes. After homogenization using a bounce in presence of lysozyme and sonication, the cells were centrifuged for 30 minutes. Supernatant (S1) was saved and stored at 4° C. The centrifuged pellet was resuspended in extraction buffer (MES 50 mM pH 6, KPO4 50 mM pH 6, KCl 100 mM, 10% v/v glycerol, 0.02% w/v OBG, 0.02% w/v sodium axide) and stirred for 30 minutes at 4° C. This second mixture was centrifuged again and the supernatant (S2) was saved. The above procedure was repeated 2 more times saving supernatants S3 and S4 and one last extraction was performed overnight (S5). Polymin P (0.005% final) was added to the combined supernatants to remove nucleic acids. This solution was stirred for 75 minutes at 4° C. and centrifuged for 1 h. The supernatant (SS1) was precipitated on ice with 20% w/v ammonium sulfate and stirred for 1 h at 4° C. The mixture was then centrifuged and the resulting supernatant (SS2) was precipitated with additional 40% w/v ammonium sulfate (60% total), stirred for 1 h and centrifuged again. The final pellet (P1) was stored overnight at 4° C. before undergoing purification the following day. All steps of the purification were performed at 4° C. unless otherwise stated.
Pellet (P1) was resuspended into MES 50 mM pH 6, KPO4 10 mM pH 6, KCl 100 mM, 10% v/v glycerol, 0.02% w/v OBG, 0.02% w/v sodium azide. The suspension was dialysis against the same buffer overnight using 12-14 kD MWCO dialysis tubing. […]

For orientation: EC50 means the concentration giving half of the maximal effect. What is called IC50 is the concentration at which inhibition is half-maximal. `CCN1c2ncc(CCOc3cc[n+]([O-])c4ccccc34)cc2C(=O)N(C)c2ccc(F)nc21` [compound 11, 5,11-Dihydro-11-ethyl-2-fluoro-5-methyl-8-{2-{(1-oxido-4-quinolinyl)oxy}-ethyl}-6H-dipyrido[3,2-b:2′,3′-e][1,4]diazepin-6-one]: the concentration giving a half-maximal response (EC50) in test [1] was 52 nM. Further, the results for the concentration for half-maximal inhibition (IC50) on HIV-1 RT P23L and on HIV-1 RT Y188C were 56 nM and 6.6 nM, respectively.

For the molecule `CCN1c2ncc(CCOc3cc[n+]([O-])c4ccccc34)cc2C(=O)N(C)c2ccc(Cl)nc21` [compound 17, 2-Chloro-5,11-dihydro-11-ethyl-5-methyl-8-{2-{(1-oxido-4-quinolinyl)oxy}-ethyl}-6H-dipyrido[3,2-b:2′,3′-e][1,4]diazepin-6-one], the EC50 in test [1] was 58 nM. In addition, the IC50 at HIV-1 RT P23L came out at 60 nM; at HIV-1 RT Y188C, 8.1 nM.

Regarding `CCN1c2ncc(CCOc3cc[n+]([O-])c4ccccc34)cc2C(=O)N(C)c2cccnc21` [compound 21, 5,11-Dihydro-11-ethyl-5-methyl-8-{2-{(1-oxido-4-quinolinyl)oxy}ethyl}-6H-dipyrido[3,2-b:2′,3′-e][1,4]diazepin-6-one], the half-maximal effective concentration (EC50) in test [1] was found to be 67 nM. The values for the IC50 at HIV-1 RT P23L and at HIV-1 RT Y188C were 129 nM and 9.9 nM, respectively.
